Results published in ChEMBL document CHEMBL5034015, “Structure-Based Optimization of 3-Phenyl-N-(2-(3-phenylureido)ethyl)thiophene-2-sulfonamide Derivatives as Selective Mcl-1 Inhibitors” (J Med Chem, 2021).
Activity calls are given as the source filed them. How the calls were made is not given here.

Legend:
Bcl-2-like protein 1 [1] = molecular target: T1, Bcl-2-like protein 1 (Homo sapiens, UniProt Q07817); assay: Binding affinity to full length human Bcl-xl expressed in Escherichia coli BL21 (DE3) at 100 uM preincubated for 30 mins followed by 5-FAM-QEDIIIINIARHLAQVGDSMD-RSIPPG tracer addition and measured after 20 mins by fluorescence polarization assay relative to control; conditions: time 50.0 min
RS4-11 = assay: cells; conditions: Homo sapiens, RS4-11, 48 h
Description: Cytotoxicity against human RS4-11 cells assessed as inhibition of cell growth incubated for 48 hrs by CCK8 assay

[2] = molecular target: T2, Induced myeloid leukemia cell differentiation protein Mcl-1 (Homo sapiens, UniProt Q07820); assay: Binding affinity to full length human MCL1 expressed in Escherichia coli BL21 (DE3) at 100 uM preincubated for 30 mins followed by 5-FAM-QEDIIIINIARHLAQVGDSMD-RSIPPG tracer addition and measured after 20 mins by fluorescence polarization assay relative to control; conditions: time 50.0 min
HEK-293T = assay: Cytotoxicity against HEK293T cells assessed as reduction in cell viability incubated for 48 hrs by CCK8 assay; conditions: Homo sapiens
[3] = molecular target: T3, Apoptosis regulator Bcl-2 (Homo sapiens, UniProt P10415); assay: Binding affinity to full length human Bcl-2 expressed in Escherichia coli BL21 (DE3) at 100 uM preincubated for 30 mins followed by 5-FAM-QEDIIIINIARHLAQVGDSMD-RSIPPG tracer addition and measured after 20 mins by fluorescence polarization assay relative to control; conditions: time 50.0 min
HL-60 = assay: cells; conditions: Homo sapiens, HL-60, 48 h
Description: Cytotoxicity against human HL-60 cells assessed as inhibition of cell growth incubated for 48 hrs by CCK8 assay

HeLa = assay: cells; conditions: Homo sapiens, 48 h
Description: Cytotoxicity against human HeLa cells assessed as inhibition of cell growth incubated for 48 hrs by CCK8 assay

[4] = molecular target: T2, Induced myeloid leukemia cell differentiation protein Mcl-1; assay: Binding affinity to full length human MCL1 expressed in Escherichia coli BL21 (DE3) assessed as inhibition constant preincubated for 30 mins followed by 5-FAM-QEDIIIINIARHLAQVGDSMD-RSIPPG tracer addition and measured after 20 mins by fluorescence polarization assay
Bcl-2-like protein 1 [5] = molecular target: T1, Bcl-2-like protein 1; assay: Binding affinity to full length human Bcl-xl expressed in Escherichia coli BL21 (DE3) assessed as inhibition constant preincubated for 30 mins followed by 5-FAM-QEDIIIINIARHLAQVGDSMD-RSIPPG tracer addition and measured after 20 mins by fluorescence polarization assay
[6] = molecular target: T3, Apoptosis regulator Bcl-2; assay: Binding affinity to full length human Bcl-2 expressed in Escherichia coli BL21 (DE3) assessed as inhibition constant preincubated for 30 mins followed by 5-FAM-QEDIIIINIARHLAQVGDSMD-RSIPPG tracer addition and measured after 20 mins by fluorescence polarization assay
Bcl-2-like protein 1 [7] = molecular target: T1, Bcl-2-like protein 1; assay: Binding affinity to full length human Bcl-xl expressed in Escherichia coli BL21 (DE3) at up to 100 uM preincubated for 30 mins followed by 5-FAM-QEDIIIINIARHLAQVGDSMD-RSIPPG tracer addition and measured after 20 mins by fluorescence polarization assay; conditions: dose microM <=100, time 50.0 min

T3 sequence (P10415 whole entry): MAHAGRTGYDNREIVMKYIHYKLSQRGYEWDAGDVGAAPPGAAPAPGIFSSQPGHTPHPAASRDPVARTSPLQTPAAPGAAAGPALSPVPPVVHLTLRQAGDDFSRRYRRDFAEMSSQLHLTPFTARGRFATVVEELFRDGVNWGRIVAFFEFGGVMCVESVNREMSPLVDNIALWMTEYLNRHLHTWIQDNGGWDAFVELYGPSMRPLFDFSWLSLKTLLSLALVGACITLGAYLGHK
T2 sequence (Q07820 whole entry): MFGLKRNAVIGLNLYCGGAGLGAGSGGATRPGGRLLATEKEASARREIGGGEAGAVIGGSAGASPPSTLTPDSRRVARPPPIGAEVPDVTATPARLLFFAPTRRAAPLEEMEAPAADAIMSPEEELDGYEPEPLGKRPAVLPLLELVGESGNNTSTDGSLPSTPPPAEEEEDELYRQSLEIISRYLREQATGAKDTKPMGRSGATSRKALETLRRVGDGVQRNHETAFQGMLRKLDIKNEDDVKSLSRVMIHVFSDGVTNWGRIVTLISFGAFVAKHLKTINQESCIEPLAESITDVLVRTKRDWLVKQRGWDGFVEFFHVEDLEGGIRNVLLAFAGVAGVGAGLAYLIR
T1 sequence (Q07817 whole entry): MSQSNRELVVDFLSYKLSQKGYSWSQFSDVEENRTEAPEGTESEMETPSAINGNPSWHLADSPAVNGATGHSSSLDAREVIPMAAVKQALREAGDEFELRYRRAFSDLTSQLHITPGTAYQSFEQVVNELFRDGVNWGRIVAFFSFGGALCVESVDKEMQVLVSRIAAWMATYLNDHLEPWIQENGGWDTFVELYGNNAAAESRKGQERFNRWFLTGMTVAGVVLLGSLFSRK

SMILES | inhibition (Bcl-2-like protein 1 [1]) | IC50 (RS4-11) | inhibition [2] | IC50 (HEK-293T) | inhibition [3] | IC50 (HL-60) | IC50 (HeLa) | Ki [4] | Ki (Bcl-2-like protein 1 [5]) | Ki [6] | Activity (Bcl-2-like protein 1 [7])
COc1ccc(Oc2ccccc2-c2ccsc2S(=O)(=O)N2CCN(C(=O)Nc3cccc([N+](=O)[O-])c3)CC2)cc1OC | 19% | > 50 µM | 31% | > 20 µM | 18% | > 50 µM | > 50 µM | – | – | – | –
O=C(NCCNS(=O)(=O)c1cc(-c2ccccc2Oc2ccc(O)c(O)c2)cs1)Nc1cc(C(F)(F)F)cc(C(F)(F)F)c1 | – | 3.9 µM | – | > 50 µM | – | 1.3 µM | > 20 µM | 0.51 µM | 1.7 µM | 5.2 µM | –
O=C(NCCNS(=O)(=O)c1sccc1-c1ccccc1Oc1ccc(O)c(O)c1)Nc1cc(Cl)cc(Cl)c1 | – | 6.2 µM | – | 10.7 µM | – | 6.9 µM | > 50 µM | 1.4 µM | – | 4.6 µM | inactive
COc1ccc(Oc2ccccc2-c2ccsc2S(=O)(=O)N2CCN(C(=O)Nc3ccc(F)cc3)CC2)cc1OC | 33% | 14.9 µM | 28% | > 50 µM | 15% | > 20 µM | > 20 µM | – | – | – | –
COc1ccc(Oc2ccccc2-c2ccsc2S(=O)(=O)N2CCN(C(=O)Nc3cc(C(F)(F)F)cc(C(F)(F)F)c3)CC2)cc1OC | 24% | > 50 µM | 44% | > 20 µM | 23% | > 20 µM | > 50 µM | – | – | – | –
O=C(NCCNS(=O)(=O)c1ccc(-c2ccccc2Oc2ccc(O)c(O)c2)s1)Nc1cc(C(F)(F)F)cc(C(F)(F)F)c1 | – | 4.9 µM | – | 17.1 µM | – | 10.5 µM | > 20 µM | 0.42 µM | 1.5 µM | 3.9 µM | –
COc1ccc(Oc2ccccc2-c2ccsc2S(=O)(=O)N2CCN(C(=O)Nc3ccc([N+](=O)[O-])cc3)CC2)cc1OC | 20% | > 50 µM | 22% | > 20 µM | 17% | > 50 µM | > 50 µM | – | – | – | –
O=C(Nc1cccc([N+](=O)[O-])c1)N1CCN(S(=O)(=O)c2sccc2-c2ccccc2Oc2ccc(O)c(O)c2)CC1 | 34% | 9.8 µM | 74% | > 20 µM | 30% | 4.5 µM | > 20 µM | – | – | – | –
Cc1ccc(-c2ccsc2S(=O)(=O)NCCNC(=O)Nc2cc(Cl)cc(Cl)c2)c(Oc2ccc(O)c(O)c2)c1 | – | 5.1 µM | – | 6.7 µM | – | 3.5 µM | 6.5 µM | 0.59 µM | – | 2.9 µM | inactive
O=C(NCCNS(=O)(=O)c1ccc(-c2ccccc2Oc2ccc(O)c(O)c2)s1)Nc1cc(Cl)cc(Cl)c1 | – | 4.5 µM | – | 12.4 µM | – | 10.4 µM | > 20 µM | 0.94 µM | 1.7 µM | 3.6 µM | –
O=S(=O)(NCCNC(=S)Nc1cc(C(F)(F)F)cc(C(F)(F)F)c1)c1sccc1-c1ccccc1Oc1ccc(O)c(O)c1 | – | 4.8 µM | – | 7.5 µM | – | 4.3 µM | > 50 µM | 0.84 µM | – | 5.6 µM | inactive
O=S(=O)(c1sccc1-c1ccccc1Oc1ccc(O)c(O)c1)N1CCN(C(=S)Nc2cc(C(F)(F)F)cc(C(F)(F)F)c2)CC1 | 12% | 7.3 µM | 72% | > 20 µM | 20% | 2.2 µM | > 20 µM | – | – | – | –
O=S(=O)(NCCNC(=S)Nc1cc(C(F)(F)F)cc(C(F)(F)F)c1)c1cc(-c2ccccc2Oc2ccc(O)c(O)c2)cs1 | – | 4.5 µM | – | > 20 µM | – | 0.6 µM | > 20 µM | 0.32 µM | 1 µM | 4.6 µM | –
COc1ccc(Oc2ccccc2-c2ccsc2S(=O)(=O)N2CCN(C(=S)Nc3ccc(Cl)cc3)CC2)cc1OC | 33% | > 50 µM | 43% | > 20 µM | 18% | > 50 µM | > 50 µM | – | – | – | –
O=C(NCCNS(=O)(=O)c1sccc1-c1ccccc1Oc1ccc(O)c(O)c1)Nc1cc(C(F)(F)F)cc(C(F)(F)F)c1 | – | 4.9 µM | – | 8.9 µM | – | 5.7 µM | > 50 µM | 2.1 µM | – | 17 µM | inactive
O=C(Nc1ccc(F)cc1)N1CCN(S(=O)(=O)c2sccc2-c2ccccc2Oc2ccc(O)c(O)c2)CC1 | 32% | 6.8 µM | 95% | 15.5 µM | 33% | 8.1 µM | 14.8 µM | – | – | – | –
O=C(Nc1ccc([N+](=O)[O-])cc1)N1CCN(S(=O)(=O)c2sccc2-c2ccccc2Oc2ccc(O)c(O)c2)CC1 | 29% | 14.3 µM | 63% | > 20 µM | 33% | 4.9 µM | > 20 µM | – | – | – | –
COc1ccc(Oc2ccccc2-c2ccsc2S(=O)(=O)N2CCN(C(=S)Nc3ccc([N+](=O)[O-])cc3)CC2)cc1OC | 18% | > 50 µM | 33% | > 20 µM | 16% | > 50 µM | > 50 µM | – | – | – | –
O=C(NCCNS(=O)(=O)c1cc(-c2ccccc2Oc2ccc(O)c(O)c2)cs1)Nc1cc(Cl)cc(Cl)c1 | – | > 50 µM | – | > 20 µM | – | > 20 µM | > 50 µM | 0.77 µM | 1.7 µM | 8.4 µM | –
COc1ccc(Oc2ccc([N+](=O)[O-])cc2-c2ccsc2S(=O)(=O)N2CCN(C(=O)Nc3ccc([N+](=O)[O-])cc3)CC2)cc1OC | 44% | > 50 µM | 37% | > 20 µM | 19% | > 50 µM | > 50 µM | – | – | – | –
COc1ccc(Oc2ccc([N+](=O)[O-])cc2-c2ccsc2S(=O)(=O)N2CCN(C(=S)Nc3ccc([N+](=O)[O-])cc3)CC2)cc1OC | 27% | > 50 µM | 26% | > 50 µM | 16% | > 50 µM | > 50 µM | – | – | – | –
O=S(=O)(c1sccc1-c1ccccc1Oc1ccc(O)c(O)c1)N1CCN(C(=S)Nc2ccc(Cl)cc2)CC1 | 3% | 7.5 µM | 20% | > 50 µM | 2% | 5.5 µM | > 50 µM | – | – | – | –
